Results taken from patent US5571788A, “Stable calcitonin pharmaceutical compositions” (Ciba-Geigy Corporation, priority 1994, dated 1996).

Tests used:
[1] = Long-time hCT stability of aqueous solutions (solution remains clear, free of fibrils); details: for time solution is stable: Example 1 repeated (5 mg/ml hCT) with acetic acid replaced by the named acid
[2] = Ability of an acid to produce a stable hCT solution (stored 24 hours at 25° C., solution remains clear); format: physicochemical; details: aqueous hCT solution with the acid, no salt or buffer
[3] = Extrapolated time of fibrillation (ln/ln plot of fibrillation time against hCT concentration); format: physicochemical; details: 5-9 mg/ml hCT in 0.001% acetic acid, 4° C.; ln/ln plot from solutions up to 100 mg/ml hCT
Experimental: The stability of the solution is dependent on the concentration. We have found a linear correlation between the natural logarithm of fibrillation time and the natural logarithm of hCT concentration at a given temperature. From measurements on hCT solutions with concentrations up to 100 mg/ml hCT and using the 1n/1n plot, stability of more than 5 years at 4° C. is predicted for solutions with 5-9 mg/ml hCT in 0.001% acetic acid.
Solutions of hCT are made using different concentrations of methyl cellulose (MC) and hydroxypropyl methyl cellulose (HPMC) with and without 0.01% benzethonium chloride (BTC), in one case also with 0.001% acetic acid (AA) and in one case using 0.5% dextran (D). The extrapolated time of fibrillation in years is given for hCT concentration of 3.3 mg/ml and 6.6 mg/ml.

[4] = Absorption spectra and HPLC of stored hCT solutions; format: physicochemical; details: hCT stored in aqueous solutions of Example 1
[5] = Chemical stability tests (Roger's test); format: physicochemical; details: 3.3 mg/ml hCT, 0.5% methyl cellulose, 0.02% benzethonium chloride, 0.001% acetic acid; in 5 years, storage at 10° C.
Experimental: A solution of hCT is made containing 3.3 mg/ml hCT, 0.5% methyl cellulose, 0.02% benzethonium chloride and 0.001% acetic acid. Chemical stability tests (Roger's test) predicted only 0.02% chemical decomposition of the hCT in 5 years for storage at 10° C.

[6] = SUNTEST accelerated light exposure, stability against fibril formation; format: physicochemical; details: Example 3 solutions with 0.5% hydroxypropylmethylcellulose; after 24 hours at 47° C. in SUNTEST machine

With `O=C(O)CCC(=O)O` [succinic acid] as the molecule, how does the “time solution is stable” value [1] read?
The value was “over 4 days”.

Which results are given for `O=C1O[C@H]([C@@H](O)CO)C(O)=C1O` [ascorbic acid]?
time solution is stable [1]: over 4 days; acid forms stable hCT solution [2]: form stable solutions

For `Cl` [hydrochloric acid], which “time solution is stable” value [1] is on record?
Its value is “over 4 days”.

What about the “acid forms stable hCT solution” value [2] of the same molecule?
Its value is “form stable solutions”.

With `Oc1ccccc1` [phenol] as the molecule, how does the “acid forms stable hCT solution” value [2] read?
Its value is “form stable solutions”.

With `O=C(O)CCCC(=O)O` [glutaric acid] as the molecule, how does the “time solution is stable” value [1] read?
Its value is “over 4 days”.

And the “acid forms stable hCT solution” value [2]?
Its value is “form stable solutions”.

With `O=C(O)CC(O)(CC(=O)O)C(=O)O` [citric acid] as the molecule, how does the “time solution is stable” value [1] read?
Its value is “over 4 days”.

What about the “acid forms stable hCT solution” value [2] of the same molecule?
Its value is “form stable solutions”.

Which “time solution is stable” value [1] does the source give for `O=C(O)C(O)C(O)C(=O)O` (racemic) [DL-tartaric acid] here?
The value was “over 4 days”.

What about the “acid forms stable hCT solution” value [2] of the same molecule?
The value was “form stable solutions”.

With `N[C@@H](CCC(=O)O)C(=O)O` [L-glutamic acid] as the molecule, how does the “time solution is stable” value [1] read?
The value was “over 4 days”.

For `N[C@H](CCC(=O)O)C(=O)O` [D-glutamic acid], which “acid forms stable hCT solution” value [2] is on record?
The value was “do not form stable solutions”.

Which “acid forms stable hCT solution” value [2] does the source give for `O=S(=O)(O)O` [sulphuric acid] here?
Its value is “do not form stable solutions”.

Which “acid forms stable hCT solution” value [2] does the source give for `O=C(O)/C=C\C(=O)O` [maleic acid] here?
Its value is “do not form stable solutions”.

Which results are given for `CC(=O)O` [acetic acid]?
stabilising conditions for hCT solution ([1]; acid concentration 0.001%): best case; acid forms stable hCT solution [2]: form stable solutions

Which “time solution is stable” value [1] does the source give for `O=CO` [formic acid] here?
Its value is “over 4 days”.

What about the “acid forms stable hCT solution” value [2] of the same molecule?
The value was “form stable solutions”.

Which “acid forms stable hCT solution” value [2] does the source give for `O=C(O)CN(CCN(CC(=O)O)CC(=O)O)CC(=O)O` [ethylene - diamine tetraacetic acid] here?
The value was “form stable solutions”.

What does the source list for `O=C(O)CC(=O)O` [malonic acid]?
time solution is stable [1]: over 4 days; acid forms stable hCT solution [2]: form stable solutions

With `N[C@@H](CC(=O)O)C(=O)O` [aspartic acid] as the molecule, how does the “acid forms stable hCT solution” value [2] read?
The value was “do not form stable solutions”.

Which results are given for `O=C(O)CCCCC(=O)O` [adipic acid]?
time solution is stable [1]: over 4 days; acid forms stable hCT solution [2]: form stable solutions

With `O=C(O)C(O)C(O)C(=O)O` [L-α-tartaric acid] as the molecule, how does the “time solution is stable” value [1] read?
The value was “over 4 days”.

What about the “acid forms stable hCT solution” value [2] of the same molecule?
Its value is “form stable solutions”.

For `O=C(O)[C@H](O)[C@@H](O)[C@H](O)[C@H](O)CO` [gluconic acid], which “acid forms stable hCT solution” value [2] is on record?
The value was “do not form stable solutions”.

Which “predicted stability of hCT solution” value [3] does the source give for human calcitonin [hCT] here?
Its value is “more than 5 years”.

What about the “change in hCT properties (absorption spectra and HPLC)” value [4] of the same molecule?
The value was “no change in hCT properties”.

And the “time solutions are stable” value ([1]; Example 3: Example 1 solutions (5 mg/ml hCT, acetic acid) plus 0.5% hydroxypropylmethylcellulose, 4° C., 22° C. and 37° C., in the dark or in daylight)?
Its value is “more than 3.5 months”.

What about the “predicted chemical decomposition of the hCT” value [5] of the same molecule?
Its value is 0.02%.

And the “stability against fibril formation under accelerated light exposure” value [6]?
The value was “stable against fibril formulation”.
